Read-outs that look alike come from different tables or passages of the source.
Columns and labels:
[1] = system: Septoria tritici; assay: In vivo preventive test on Septoria tritici (leaf spot on wheat); settings: 500 ppm; wheat plants sprayed 24 hours before contamination; grading 21 to 28 days after contamination vs control plants
Method: Wheat plants (“Scipion” variety), sown in starter cups on a 50/50 peat soil-pozzolana substrate and grown at 22° C. (12 h)/20° C. (12 h), are treated at the 1-leaf stage (10 cm height) by spraying with the active ingredient prepared as described above. Plants, used as controls, are treated with the mixture of acetone/tween/DMSO/water not containing the active material. After 24 hours, the plants are contaminated by spraying the leaves with an aqueous suspension of cryopreserved Septoria tritici spores (500 000 spores per ml). […] Grading (% of efficacy) is carried out 21 to 28 days after the contamination, in comparison with the control plants.

[2] = type: physicochemical
[3] = HPLC on reversed phase columns, method [a]: pH 2.7, 0.1% formic acid in water / acetonitrile, linear gradient 10% to 95% acetonitrile
[4] = method [a]: HPLC/LC-MS on reversed phase at pH 2.7, 0.1% formic acid in water / acetonitrile, gradient 10% to 95% acetonitrile
[5] = method [a]: HPLC/LC-MS on reversed phase at pH 2.7, 0.1% formic acid in water / acetonitrile, linear gradient 10% to 95% acetonitrile
[6] = HPLC on reversed phase columns, method [a]: pH 2.7, 0.1% formic acid in water and acetonitrile, linear gradient 10% to 95% acetonitrile

| log P [2, 5] | Structure (SMILES) | % of efficacy (protection) [1] | other results |
| --- | --- | --- | --- |
| 2.51^[a] | CC1(C(=O)NCc2cn[nH]c2-c2cccs2)CC(c2ccc3ncc(Br)cc3c2)=NO1 (stereo not drawn) [compound 191] | 71% | – |
| 2.25^[a] | C#Cc1cnc2ccc(C3=NOC(C)(C(=O)NCc4cn[nH]c4-c4cccs4)C3)cc2c1 (stereo not drawn) [compound 192] | 71% | – |
| 1.65^[a] | C#Cc1cnc2ccc(C3=NOC(C)(C(=O)NCC4CCC(=O)N4C)C3)cc2c1 (stereo not drawn) [compound 213] | 97% | – |
| 3.11^[a] | C#Cc1cnc2ccc(C3=NOC(C)(C(=O)NCC4CCCOC4c4ccccc4)C3)cc2c1 (stereo not drawn) [compound 222] | 71% | – |
| 3.11^[a] | C#Cc1cnc2ccc(C3=NOC(C)(C(=O)NCC4CCOc5ccccc54)C3)cc2c1 (stereo not drawn) [compound 223] | 71% | – |

Second part, the molecule before the results:

| Structure (SMILES) | log P [2, 5] | % of efficacy (protection) [1] | other results |
| --- | --- | --- | --- |
| CC(O)C1(C(=O)NCC2COC(C)(C)O2)CC(c2ccc3ncc(Br)cc3c2)=NO1 (mixture of isomers) [compound 555] | – | 71% | – |
| Cc1cnc(CNC(=O)C2(C(C)O)CC(c3ccc4ncc(Br)cc4c3)=NO2)cn1 (mixture of isomers) [compound 562] | – | 86% | – |
| C#CCCNC(=O)C1(C)CC(c2ccc3ncc(C#C)cc3c2)=NO1 (racemic) [compound 355] | – | 100% | log P [2, 3]: 2.25[a] |
| C#Cc1cnc2ccc(C3=NOC(C)(C(=O)NCC(OC)OC)C3)cc2c1 (racemic) [compound 366] | – | 100% | log P [2, 4]: 2.13[a] |
| CC(C)NC(=O)C1ON=C(c2ccc3ncc(Br)cc3c2)C1C (racemic) [compound 376] | – | 86% | log P [2, 4]: 2.64[a] |
| CC#Cc1cnc2ccc(C3=NOC(C)(C(=O)NCc4cn(CC)nc4C)C3)cc2c1 (racemic) [compound 378] | – | 97% | log P [2, 4]: 2.35[a] |
| CC(C)ONC(=O)C1(C)CC(c2ccc3ncc(Br)cc3c2)=NO1 (racemic) [compound 388] | – | 100% | log P [2, 4]: 2.44[a] |
| CCONC(=O)C1(C)CC(c2ccc3ncc(Br)cc3c2)=NO1 (racemic) [compound 389] | – | 100% | log P [2, 4]: 2.17[a] |
| CC1(C(=O)NC2CCCC2)CC(c2ccc3ncc(Br)cc3c2)=NO1 (racemic) [compound 390] | – | 98% | log P [2, 4]: 3.29[a] |
| CC(C)NC(=O)C12CC1C(c1ccc3ncc(Br)cc3c1)=NO2 (racemic) [compound 397] | – | 75% | log P [2, 4]: 2.82[a] |
| C#Cc1cnc2ccc(C3=NOC(C)(C(=S)NCc4cnn(C)c4C)C3)cc2c1 (racemic) [compound 443] | – | 88% | log P [2, 4]: 2.76[a] |
| COC1(C(=O)NC(C)C)CC(c2ccc3ncc(Br)cc3c2)=NO1 (single isomer, unassigned) [compound 285] | – | 100% | log P [2, 3]: 2.57[a] |
| Cc1cc(NC(=O)C2(C)CC(c3cc4cc(Br)cnc4c(F)c3F)=NO2)n(C)n1 (stereo not drawn) [compound 18] | – | 93% | Log P ([2]; method [a]: HPLC/LC-MS on reversed phase at pH 2.7, 0.1% formic acid in water and acetonitrile, linear gradient 10% to 95% acetonitrile): 2.6^[a] |
| CCC(C)NC(=O)C1(C)CC(c2cc3cc(Br)cnc3c(OC)c2OC)=NO1 (stereo not drawn) [compound 28] | 3.21^[a] | 100% | – |
| CCn1cc(CNC(=O)C2(C)CC(c3cc4cc(Br)cnc4c(F)c3OC)=NO2)c(C)n1 (stereo not drawn) [compound 29] | 2.47^[a] | 100% | – |
| CCn1cc(CNC(=O)C2(C)CC(c3cc4cc(Br)cnc4c(OC)c3OC)=NO2)c(C)n1 (stereo not drawn) [compound 30] | 2.42^[a] | 100% | – |
| CCn1cc(CNC(=O)C2(C)CC(c3ccc4ncc(Cl)cc4c3)=NO2)c(C)n1 (stereo not drawn) [compound 54] | 2.28^[a] | 100% | – |
| CCn1cc(CNC(=O)C2(Cc3ccccc3)CC(c3ccc4ncc(Br)cc4c3)=NO2)c(C)n1 (stereo not drawn) [compound 56] | 3.23^[a] | 70% | – |
| CCOCCCNC(=O)C1(Cc2ccccc2)CC(c2ccc3ncc(Br)cc3c2)=NO1 (stereo not drawn) [compound 59] | 3.8^[a] | 70% | – |
| CCn1cc(CNC(=O)C2(C(C)C)CC(c3ccc4ncc(Br)cc4c3)=NO2)c(C)n1 (stereo not drawn) [compound 61] | 2.94^[a] | 80% | – |
| CC(C)NC(=O)C1(CF)CC(c2ccc3ncc(Br)cc3c2)=NO1 (stereo not drawn) [compound 76] | 2.46^[a] | 75% | – |
| C#Cc1cnc2ccc(C3=NOC(C)(C(=O)NCc4ccc(-c5csnn5)cc4)C3)cc2c1 (stereo not drawn) [compound 86] | 2.82^[a] | 75% | – |
| CC1(C(=O)NCc2ccccc2)CC(c2ccc3ncc(Br)cc3c2)=NO1 (stereo not drawn) [compound 91] | 3.21^[a] | 75% | – |
| CC1(C(=O)NCc2ccc(Cl)nc2)CC(c2ccc3ncc(Br)cc3c2)=NO1 (stereo not drawn) [compound 104] | 2.73^[a] | 92% | – |
| Cn1ccc(NC(=O)C2(C(F)(F)F)CC(c3ccc4ncc(Br)cc4c3)=NO2)c1 (stereo not drawn) [compound 108] | 3.5^[a] | 75% | – |
| C#Cc1cnc2ccc(C3=NOC(C)(C(=O)NCc4ccc5[nH]ccc5c4)C3)cc2c1 (stereo not drawn) [compound 115] | 2.63^[a] | 75% | – |

| Structure (SMILES) | log P [2, 5] | % of efficacy (protection) [1] | other results |
| --- | --- | --- | --- |
| C#Cc1cnc2ccc(C3=NOC(C)(C(=O)NCC4CCC(C(F)(F)F)CC4)C3)cc2c1 (stereo not drawn) [compound 121] | 3.61^[a] | 75% | – |
| C#Cc1cc2cc(C3=NOC(C)(C(=O)NC(C)C)C3)ccc2nc1OC (stereo not drawn) [compound 133] | 3.09^[a] | 100% | – |
| C#Cc1cc2cc(C3=NOC(C)(C(=O)NC(C)C)C3)ccc2nc1Cl (stereo not drawn) [compound 134] | 3.08^[a] | 71% | – |
| CCn1cc(CNC(=O)C2(CBr)CC(c3ccc4ncc(Br)cc4c3)=NO2)c(C)n1 (stereo not drawn) [compound 137] | 2.62^[a] | 93% | – |
| CCn1cc(CNC(=O)C2(CCl)CC(c3ccc4ncc(Br)cc4c3)=NO2)c(C)n1 (stereo not drawn) [compound 138] | 2.56^[a] | 93% | – |
| CC(C)NC(=O)C1(C)CC(c2ccc3ncccc3c2)=NO1 (stereo not drawn) [compound 143] | 1.44^[a] | 71% | – |
| CCn1cc(CNC(=O)C2(C)CC(c3ccc4ncc(C#C[Si](C)(C)C)cc4c3)=NO2)c(C)n1 (stereo not drawn) [compound 149] | 3.79^[a] | 93% | – |
| Cc1ccc(CNC(=O)C2(C)CC(c3ccc4ncc(Br)cc4c3)=NO2)n1C (stereo not drawn) [compound 152] | 3.21^[a] | 71% | – |
| C#Cc1cnc2ccc(C3=NOC(C)(C(=O)NCc4ccc(C)n4C)C3)cc2c1 (stereo not drawn) [compound 153] | 2.88^[a] | 71% | – |
| C#Cc1cnc2ccc(C3=NOC(C)(C(=O)NCc4ccc(Cl)nc4)C3)cc2c1 (stereo not drawn) [compound 160] | 2.44^[a] | 71% | – |
| Cc1nn(C(C)C)c(C)c1CNC(=O)C1(C)CC(c2ccc3ncc(Br)cc3c2)=NO1 (stereo not drawn) [compound 184] | 2.6^[a] | 71% | – |
| C#Cc1cnc2ccc(C3=NOC(C)(C(=O)NCc4cnn(-c5ccccc5)n4)C3)cc2c1 (stereo not drawn) [compound 189] | 3.11^[a] | 71% | – |
| CC1(C(=O)NCc2ccc3ncsc3c2)CC(c2ccc3ncc(Br)cc3c2)=NO1 (stereo not drawn) [compound 243] | – | 71% | log P [2, 3]: 2.7^[a] |
| CCn1cc(CNC(=O)C2(F)CC(c3ccc4ncc(Br)cc4c3)=NO2)c(C)n1 (stereo not drawn) [compound 279] | – | 75% | log P [2, 3]: 2.38[a] |
| CCn1cc(CNC(=O)C2(C)CC(c3ccc4nc(Cl)c(Br)cc4c3)=NO2)c(C)n1 (stereo not drawn) [compound 286] | – | 92% | log P [2, 3]: 3.12[a] |
| CC(C)NC(=O)C1(C)CC(c2ccc3nc(Cl)c(Br)cc3c2)=NO1 (stereo not drawn) [compound 287] | – | 83% | log P [2, 3]: 3.46[a] |
| COC(CNC(=O)C1(C)CC(c2ccc3ncc(Br)cc3c2)=NO1)OC (stereo not drawn) [compound 290] | – | 96% | log P [2, 3]: 2.39[a] |
| CC1(C(=O)NC(C)(C#N)C2CC2)CC(c2ccc3ncc(Br)cc3c2)=NO1 (stereo not drawn) [compound 301] | – | 80% | – |
| C#Cc1cnc2ccc(C3=NOC(C)(C(=O)NCc4cccnc4N(C)C)C3)cc2c1 (stereo not drawn) [compound 808] | – | – | log P [2, 6]: 1.43[a] |
| C#Cc1cnc2ccc(C3=NOC(C)(C(=O)NCc4ccnc(NC5CC5)c4)C3)cc2c1 (stereo not drawn) [compound 809] | – | – | log P [2, 6]: 1.45[a] |
| CC1(C(=O)NCc2ccncc2F)CC(c2ccc3ncc(Br)cc3c2)=NO1 (stereo not drawn) [compound 811] | – | – | log P [2, 6]: 2.27[a] |
| C#Cc1cnc2ccc(C3=NOC(C)(C(=O)NCc4cccnc4C#N)C3)cc2c1 (stereo not drawn) [compound 812] | – | – | log P [2, 6]: 1.70[a] |
| C#Cc1cnc2ccc(C3=NOC(C)(C(=O)NCC4CC(F)(F)C4)C3)cc2c1 (stereo not drawn) [compound 813] | – | – | log P [2, 6]: 2.71[a] |
| CC1(C(=O)NCc2cccnc2C#N)CC(c2ccc3ncc(Br)cc3c2)=NO1 (stereo not drawn) [compound 814] | – | – | log P [2, 6]: 1.91[a] |
| CC1(C(=O)N(Cc2cc(F)cc3c2C(C)(C)CCC3)C2CC2)CC(c2ccc3ncc(Br)cc3c2)=NO1 (stereo not drawn) [compound 815] | – | – | log P [2, 6]: 6.11[a] |

— patent US9510598B2, “Nitrogen-containing heterocyclic compounds for plant disease control” (BAYER CROPSCIENCE AG, priority 2012, dated 2016)
